{"source": "patent US20140364405A1", "about": "“TREATMENT OF SEBORRHOEA” (McFarlane Marketing (Aust.)Pty. Ltd., priority 2011, published 2014)", "key": {"[1]": {"system": "skin sebum (skin surface lipids)", "test": "Pilot clinical study: sebum reduction measured with Sebumeter SM810PC", "assay_type": "in vivo, humans", "settings": "for sebum reduction: one side of face, after 28 days", "description": "(§1) In an initial pilot study in humans, 3 topical formulations were evaluated for effectiveness in reduction of sebum or treatment of acne.\n(§2) The active substance in each of these formulations was: • Formulation 1—natural isolutrol (sodium 24R—scymnol sulphate). • Formulation 2—synthetic (24R)—scymnol. • Formulation 3—synthetic racemic (24RS)—scymnol.\n(§3) In each formulation, the active substance was incorporated at 0.015% w/w into an oil-free topical lotion. In the pilot study, each test formulation was applied to one side of the face of a test subject, twice daily, for 28 days in the case of Formulations 1 and 2, and for 42 days in the case of Formulation 3. For each test formulation, 10 healthy female test subjects participated in the pilot study.\nFor the evaluation of sebum reduction, a Sebumeter SM810PC (Courage+Khazaka electronic GmbH) was used to obtain measurement of skin sebum (skin surface lipids) on days 0, 3, 7, 14, 21, 28, 35 and 42. To accomplish this, a special purpose film of the cartridge measuring head was applied for 30 seconds to the relevant skin area. The cartridge was inserted into the Sebumeter SM810 PC for electronic determination of film transparency variations. The LC-display of the instrument presents the result in terms of μg/cm^2. Duplicated measurements were obtained on the same site at each visit, and the results were averaged."}, "[2]": {"system": "total acne lesion (pustules, papules and comedones) counts", "test": "Pilot clinical study: anti-acne treatment, total acne lesion counts", "assay_type": "in vivo, humans", "settings": "0.015% w/w in oil-free topical lotion, twice daily, over the 42 day test period", "description": "as §1, §2, §3\nFor evaluation of anti-acne treatment, reduction in total acne lesion (pustules, papules and comedones) counts was measured."}, "liver dysfunction": {"system": "liver dysfunction", "settings": "in vivo; cited from earlier work"}, "seborrhoea": {"system": "seborrhoea", "settings": "particularly when used topically; cited from earlier work"}, "[3]": {"settings": "0.015% w/w in oil-free topical lotion, twice daily"}}, "data": [{"molecule": "racemic (24RS,25RS) sodium scymnol sulphate [racemic (24RS)-scymnol]", "values": [{"measurement": "sebum reduction", "setting": "[1]; [3]", "result": "at least as effective in sebum reduction as the active substances of Formulations 1 and 2"}, {"measurement": "sebum reduction when test period extended", "setting": "[1]; 0.015% w/w in oil-free topical lotion, twice daily, test period extended to 42 days", "result": "sebum reduction continued"}, {"measurement": "reduction of total acne lesion counts", "setting": "[2]", "result": "effective in reduction of total acne lesion counts"}]}, {"molecule": "C[C@H](CC[C@@H](O)C(CO)CO)[C@H]1CC[C@H]2[C@@H]3[C@H](O)C[C@@H]4C[C@H](O)CC[C@]4(C)[C@H]3C[C@H](O)[C@]12C", "note": "[(24S)-scymnol]", "values": [{"measurement": "effect of presence of the non-natural enantiomer in the racemate on the sebum study", "setting": "[1]; as component of racemic (24RS)-scymnol of Formulation 3", "result": "no adverse effect in the sebum study"}]}, {"molecule": "C[C@H](CC[C@@H](O)C(CO)CO)[C@H]1CC[C@H]2[C@@H]3[C@H](O)C[C@@H]4C[C@H](O)CC[C@]4(C)[C@H]3C[C@H](O)[C@]12C", "note": "[(24R)-scymnol, 24R-(+)-5β-cholestane-3α,7α,12α,24,26,27-hexol]", "values": [{"measurement": "sebum reduction", "setting": "[1]; [3]", "result": "at least as effective in sebum reduction as the active substance of Formulation 1"}, {"measurement": "treatment of liver dysfunction", "setting": "liver dysfunction", "result": "activity in the treatment of liver dysfunction"}]}, {"molecule": "CC(CC[C@@H](O)C(CO)COS(=O)(=O)[O-])C1CCC2C3C(O)C[C@@H]4CC(O)CCC4(C)C3CC(O)C12C.[Na+]", "note": "(stereo partly drawn) [sodium 24R-scymnol sulphate, 24(+)-3α, 7α,12α,24,26-pentahydroxy-coprostane-27-sodium sulphate ester]", "values": [{"measurement": "treatment of seborrhoea", "setting": "seborrhoea", "result": "effective in the treatment of seborrhoea"}]}]}
